Reference: ChEMBL document CHEMBL3091391, “An assay for human telomeric G-quadruplex DNA binding drugs” (Bioorg Med Chem Lett, 2013)
Active and inactive are the calls of the source. The calls are words filed in the database; no cut-off is given here.

Key:
Homo sapiens [1] = organism: Homo sapiens; experiment: Binding affinity to human d[AGGG(TTAGGG)3] telomeric G-quadruplex DNA by fluorescence-based assay
Homo sapiens [2] = organism: Homo sapiens; experiment: Binding affinity to human d[AGGG(TTAGGG)3] telomeric G-quadruplex DNA after 1 to 12 hrs by titrimetric analysis in presence of potassium ions
Homo sapiens [3] = organism: Homo sapiens; experiment: Binding affinity to human d[AGGG(TTAGGG)3] telomeric G-quadruplex DNA after 1 to 12 hrs by titrimetric analysis in presence of sodium ions
Homo sapiens [4] = organism: Homo sapiens; experiment: Selectivity ratio of binding affinity for human d[AGGG(TTAGGG)3] telomeric G-quadruplex DNA in presence of sodium ions to binding affinity for human d[AGGG(TTAGGG)3] telomeric G-quadruplex DNA in presence of potassium ions
[5] = Binding affinity to d(G4C4)2 duplex DNA (unknown origin) by fluorescence-based assay
Homo sapiens [6] = organism: Homo sapiens; experiment: Binding affinity to human telomeric G-quadruplex DNA

| SMILES | Activity (Homo sapiens [1]) | other results |
| --- | --- | --- |
| NCC1O[C@H](O[C@H]2[C@@H](O)[C@H](O[C@@H]3[C@@H](O)[C@H](N)C[C@H](N)[C@H]3O[C@H]3O[C@H](CN)[C@@H](O)[C@H](O)[C@H]3N)O[C@@H]2CNC(=S)NCc2ccc3c(c2)C(=O)c2ccccc2C3=O)[C@H](N)[C@@H](O)[C@@H]1O (single isomer, unassigned) | inactive | – |
| CN1/C(=C/c2cc[n+](CCCCC(=O)NCCSC[C@H]3O[C@@H](O[C@@H]4[C@@H](O)[C@H](N)C[C@H](N)[C@H]4O[C@H]4O[C@H](CN)[C@@H](O)[C@H](O)[C@H]4N)[C@H](O)[C@@H]3O[C@H]3O[C@@H](CN)[C@@H](O)[C@H](O)[C@H]3N)c3ccccc23)Sc2ccccc21 | – | K (Homo sapiens [2]): 9.3 ×10⁶ /M; K (Homo sapiens [3]): 9.6 ×10⁷ /M; Selectivity ratio (Homo sapiens [4]): 10; Activity [5]: Active |
| NC[C@@H]1O[C@H](O[C@H]2[C@@H](O)[C@H](O[C@@H]3[C@@H](O)[C@H](N)C[C@H](N)[C@H]3O[C@H]3O[C@H](CN)[C@@H](O)[C@H](O)[C@H]3N)O[C@@H]2CSCCNC(=S)NCCCNC(=O)c2ccc3c(c2)C(=O)c2ccccc2C3=O)[C@H](N)[C@@H](O)[C@@H]1O | – | Ka (Homo sapiens [6]): 1.25 ×10⁷ /M |
| NC[C@@H]1O[C@H](O[C@H]2[C@@H](O)[C@H](O[C@@H]3[C@@H](O)[C@H](N)C[C@H](N)[C@H]3O[C@H]3O[C@H](CN)[C@@H](O)[C@H](O)[C@H]3N)O[C@@H]2CNC(=S)NCCNC(=S)NCc2ccc3c(c2)C(=O)c2ccccc2C3=O)[C@H](N)[C@@H](O)[C@@H]1O | inactive | – |
| NC[C@@H]1O[C@H](O[C@H]2[C@@H](O)[C@H](O[C@@H]3[C@@H](O)[C@H](N)C[C@H](N)[C@H]3O[C@H]3O[C@H](CN)[C@@H](O)[C@H](O)[C@H]3N)O[C@@H]2CSCCNC(=S)NCc2ccc3c(c2)C(=O)c2ccccc2C3=O)[C@H](N)[C@@H](O)[C@@H]1O | inactive | – |
| NC[C@@H]1O[C@H](O[C@H]2[C@@H](O)[C@H](O[C@@H]3[C@@H](O)[C@H](N)C[C@H](N)[C@H]3O[C@H]3O[C@H](CN)[C@@H](O)[C@H](O)[C@H]3N)O[C@@H]2CNC(=S)NCCCNC(=S)NCc2ccc3c(c2)C(=O)c2ccccc2C3=O)[C@H](N)[C@@H](O)[C@@H]1O | inactive | – |
| NC[C@@H]1O[C@H](O[C@H]2[C@@H](O)[C@H](O[C@@H]3[C@@H](O)[C@H](N)C[C@H](N)[C@H]3O[C@H]3O[C@H](CN)[C@@H](O)[C@H](O)[C@H]3N)O[C@@H]2CNC(=S)Nc2ccc3c(c2)C(=O)c2ccccc2C3=O)[C@H](N)[C@@H](O)[C@@H]1O | inactive | – |
| NC[C@@H]1O[C@H](O[C@H]2[C@@H](O)[C@H](O[C@@H]3[C@@H](O)[C@H](N)C[C@H](N)[C@H]3O[C@H]3O[C@H](CN)[C@@H](O)[C@H](O)[C@H]3N)O[C@@H]2CSCCNC(=S)Nc2ccc3c(c2)C(=O)c2ccccc2C3=O)[C@H](N)[C@@H](O)[C@@H]1O | inactive | – |
| NC[C@@H]1O[C@H](O[C@H]2[C@@H](O)[C@H](O[C@@H]3[C@@H](O)[C@H](N)C[C@H](N)[C@H]3O[C@H]3O[C@H](CN)[C@@H](O)[C@H](O)[C@H]3N)O[C@@H]2CNC(=S)NCCCCCCCCCCNC(=S)NCc2ccc3c(c2)C(=O)c2ccccc2C3=O)[C@H](N)[C@@H](O)[C@@H]1O | inactive | – |

More lines, main results first:

| Activity (Homo sapiens [1]) | SMILES | other results |
| --- | --- | --- |
| inactive | NC[C@@H]1O[C@H](O[C@H]2[C@@H](O)[C@H](O[C@@H]3[C@@H](O)[C@H](N)C[C@H](N)[C@H]3O[C@H]3O[C@H](CN)[C@@H](O)[C@H](O)[C@H]3N)O[C@@H]2CSCCNC(=S)NCCCCCCCCCCNC(=S)NCc2ccc3c(c2)C(=O)c2ccccc2C3=O)[C@H](N)[C@@H](O)[C@@H]1O | – |
| inactive | NC[C@@H]1O[C@H](O[C@H]2[C@@H](O)[C@H](O[C@@H]3[C@@H](O)[C@H](N)C[C@H](N)[C@H]3O[C@H]3O[C@H](CN)[C@@H](O)[C@H](O)[C@H]3N)O[C@@H]2CSCCNC(=S)NCCCNC(=S)NCc2ccc3c(c2)C(=O)c2ccccc2C3=O)[C@H](N)[C@@H](O)[C@@H]1O | – |
| inactive | NC[C@@H]1O[C@H](O[C@H]2[C@@H](O)[C@H](O[C@@H]3[C@@H](O)[C@H](N)C[C@H](N)[C@H]3O[C@H]3O[C@H](CN)[C@@H](O)[C@H](O)[C@H]3N)O[C@@H]2CSCCNC(=S)NCCNC(=S)NCc2ccc3c(c2)C(=O)c2ccccc2C3=O)[C@H](N)[C@@H](O)[C@@H]1O | – |
| inactive | NC[C@@H]1O[C@H](O[C@H]2[C@@H](O)[C@H](O[C@@H]3[C@@H](O)[C@H](N)C[C@H](N)[C@H]3O[C@H]3O[C@H](CN)[C@@H](O)[C@H](O)[C@H]3N)O[C@@H]2CSCCNC(=S)NCCCOCCCCOCCCNC(=S)NCc2ccc3c(c2)C(=O)c2ccccc2C3=O)[C@H](N)[C@@H](O)[C@@H]1O | – |
| inactive | NC[C@@H]1O[C@H](O[C@H]2[C@@H](O)[C@H](O[C@@H]3[C@@H](O)[C@H](N)C[C@H](N)[C@H]3O[C@H]3O[C@H](CN)[C@@H](O)[C@H](O)[C@H]3N)O[C@@H]2CNC(=S)NCCCOCCCCOCCCNC(=S)NCc2ccc3c(c2)C(=O)c2ccccc2C3=O)[C@H](N)[C@@H](O)[C@@H]1O | – |
